Reference: US11401271B2, “Fused heterocyclic compound, pyrazole-ring-containing fused heterocyclic compound, agricultural composition containing thereof, and method of using the composition” (SOUTH CHINA AGRICULTURAL UNIVERSITY, priority 2017, dated 2022)

Test system: Plutella xylostella
Assay: whole plant or invertebrate
Format: in vivo
Settings: Plutella xylostella, read-out: Plutella xylostella Mortality (%) 500 ppm
Experimental: (1) Insecticidal Activity on 2nd-Instar Larvae of Plutella xylostella.
Plutella xylostella (L.) is a lepidoptera pest with a chewing mouthpart and is a common vegetable pest. The 2nd-instar larvae of Plutella xylostella were used as test objects and tested by using a leaf immersion feeding method.
(§1) Operation process: Samples were weighed accurately, and respectively added with 200 μL of dimethyl sulfoxide to prepare 10 g/L mother liquor which was diluted into a concentration of 500 ppm with an aqueous solution containing 0.05% of Tween-80 during the test. A hole puncher with a diameter of 1.0 cm was used to make cleaned cabbage leaves into leaf discs. The leaf discs were immersed in a liquid medicine, taken out after 5 seconds, air-dried naturally, and transferred into a clean vessel. About 35 2nd-instar larvae of Plutella xylostella were put into the vessel and fed at a constant temperature of 28° C. Each concentration was repeated 3 times, and an aqueous solution containing 0.05% of Tween-80 was used as a control group. After being treated for 24 hours, a number of dead Plutella xylostella was counted, and a mortality (%) was calculated according to a formula that mortality (%)=(number of live larvae in the control group−number of treated live larvae)/number of live larvae in the control group*100%.

Row | Structure (SMILES) | mortality at 500 ppm
1 | C=CC1Nc2c(Br)c(C#N)nn2-c2c(Cl)cc(C(F)(F)F)cc21 (centres unmarked) [Compound C8] | 91%
2 | C=CC1(C(F)(F)F)Nc2c(-c3ccccc3C(F)(F)F)c(C#N)nn2-c2c(Cl)cc(C(F)(F)F)cc21 (centres unmarked) [Compound C11] | 100%
3 | C=CC1(C(F)(F)F)Nc2c(-c3cc(C)oc3C)c(C#N)nn2-c2c(Cl)cc(C(F)(F)F)cc21 (centres unmarked) [Compound C12] | 100%
4 | C=CC1Nc2c([S+]([O-])C(F)(F)F)c(C#N)nn2-c2c(Cl)cc(C(F)(F)F)cc21 (centres unmarked) [Compound C16] | 100%
5 | C=CC1(CCl)Nc2c([S+]([O-])CC)c(C#N)nn2-c2c(Cl)cc(C(F)(F)F)cc21 (centres unmarked) [Compound C17] | 88%
6 | C=CC1(CCl)Nc2c([S+](C)[O-])c(C(C)=O)nn2-c2c(Cl)cc(C(F)(F)F)cc21 (centres unmarked) [Compound C19] | 90%
7 | C=CC1(CC#N)Nc2c([S+]([O-])CC)c(C#N)nn2-c2c(Cl)cc(C(F)(F)F)cc21 (centres unmarked) [Compound C21] | 90%
8 | C=CC1(CC#N)Nc2c([S+](C)[O-])c(C#N)nn2-c2c(Cl)cc(C(F)(F)F)cc21 (centres unmarked) [Compound C22] | 99%
9 | C=CC1(CC#N)Nc2c([S+](C)[O-])c(C(C)=O)nn2-c2c(Cl)cc(C(F)(F)F)cc21 (centres unmarked) [Compound C23] | 86%

Same assay, conditions: Plutella xylostella; 500 ppm; 2nd-instar larvae; leaf immersion feeding; read-out: Plutella xylostella Mortality (%) 500 ppm

Row | Structure (SMILES) | mortality at 500 ppm
10 | COC(=O)Nc1cc2n(n1)-c1cnccc1C(F)(CC(F)(F)F)N2 (centres unmarked) [Compound A40] | 96%

Test system: Spodoptera exigua
Assay: whole plant or invertebrate
Format: in vivo
Settings: Spodoptera exigua, 24 h, read-out: Spodoptera exigua Mortality (%) 500 ppm
Experimental: (2) Insecticidal Activity on 2nd-Instar Larvae of Spodoptera exigua.
Spodoptera exigua is a lepidoptera pest with a chewing mouthpart and is a common vegetable pest. The 2nd-instar larvae of Spodoptera exigua were used as test objects and tested by using a leaf immersion feeding method.
as §1, with “μL,” for “μL”, “2nd -instar” for “2nd-instar”, “Spodoptera exigua” for “Plutella xylostella”, “group −number” for “group−number”, “group * 100%.” for “group*100%.”

Row | Structure (SMILES) | mortality at 500 ppm
11 | C=CC1Nc2c(Br)c(C#N)nn2-c2c(Cl)cc(C(F)(F)F)cc21 (centres unmarked) [Compound C8] | 85%
12 | C=CC1(C(F)(F)F)Nc2c(-c3ccccc3C(F)(F)F)c(C#N)nn2-c2c(Cl)cc(C(F)(F)F)cc21 (centres unmarked) [Compound C11] | 100%
13 | C=CC1(C(F)(F)F)Nc2c(-c3cc(C)oc3C)c(C#N)nn2-c2c(Cl)cc(C(F)(F)F)cc21 (centres unmarked) [Compound C12] | 91%
14 | C=CC1Nc2c([S+]([O-])C(F)(F)F)c(C#N)nn2-c2c(Cl)cc(C(F)(F)F)cc21 (centres unmarked) [Compound C16] | 95%
15 | C=CC1(CCl)Nc2c([S+]([O-])CC)c(C#N)nn2-c2c(Cl)cc(C(F)(F)F)cc21 (centres unmarked) [Compound C17] | 89%
16 | C=CC1(CCl)Nc2c([S+](C)[O-])c(C(C)=O)nn2-c2c(Cl)cc(C(F)(F)F)cc21 (centres unmarked) [Compound C19] | 90%
17 | C=CC1(CC#N)Nc2c([S+]([O-])CC)c(C#N)nn2-c2c(Cl)cc(C(F)(F)F)cc21 (centres unmarked) [Compound C21] | 95%
18 | C=CC1(CC#N)Nc2c([S+](C)[O-])c(C#N)nn2-c2c(Cl)cc(C(F)(F)F)cc21 (centres unmarked) [Compound C22] | 94%
19 | C=CC1(CC#N)Nc2c([S+](C)[O-])c(C(C)=O)nn2-c2c(Cl)cc(C(F)(F)F)cc21 (centres unmarked) [Compound C23] | 88%

Same assay, conditions: Spodoptera exigua; 500 ppm; 2nd-instar larvae; leaf immersion feeding; 24 hours; read-out: Spodoptera exigua Mortality (%) 500 ppm

Row | Structure (SMILES) | mortality at 500 ppm
20 | COC(=O)Nc1cc2n(n1)-c1cnccc1C(F)(CC(F)(F)F)N2 (centres unmarked) [Compound A40] | 100%

Test system: Aphis craccivora
Assay: whole plant or invertebrate
Format: in vivo
Settings: Aphis craccivora, 24 h, read-out: Aphis craccivora Mortality (%) 500 ppm
Experimental: (3) Insecticidal Activity on Aphid Adults.
Aphid is a homoptera pest with a piercing-sucking mouthpart and is a common vegetable pest. Aphis craccivora were taken as test objects and tested by using an impregnation method.
Operation process: Samples were weighed accurately, and respectively added with 200 μL of dimethyl sulfoxide to prepare 10 g/L mother liquor which was diluted into a concentration of 500 ppm with an aqueous solution containing 0.05% of Tween-80 during the test. After the wingless Aphis craccivora adults stably sucked on bean sprouts, the wingless Aphis craccivora adults together with the bean sprouts were immersed into a liquid medicine with a concentration of 500 ppm, taken out after 5 seconds, air-dried naturally, transferred into a clean vessel, and fed at a constant temperature of 23° C. Each concentration was repeated 3 times, and an aqueous solution containing 0.05% of Tween-80 was used as a control group. After being treated for 24 hours, a number of dead Aphis craccivora was counted, and a mortality (%) was calculated according to a formula that mortality (%)=(number of live Aphis craccivora in the control group−number of treated live Aphis craccivora)/number of live Aphis craccivora in the control group*100%.

Row | Structure (SMILES) | mortality at 500 ppm
21 | C=CC1Nc2c(Br)c(C#N)nn2-c2c(Cl)cc(C(F)(F)F)cc21 (centres unmarked) [Compound C8] | 95%
22 | C=CC1(C(F)(F)F)Nc2c(-c3ccccc3C(F)(F)F)c(C#N)nn2-c2c(Cl)cc(C(F)(F)F)cc21 (centres unmarked) [Compound C11] | 100%
23 | C=CC1(C(F)(F)F)Nc2c(-c3cc(C)oc3C)c(C#N)nn2-c2c(Cl)cc(C(F)(F)F)cc21 (centres unmarked) [Compound C12] | 100%
24 | C=CC1Nc2c([S+]([O-])C(F)(F)F)c(C#N)nn2-c2c(Cl)cc(C(F)(F)F)cc21 (centres unmarked) [Compound C16] | 99%
25 | C=CC1(CCl)Nc2c([S+]([O-])CC)c(C#N)nn2-c2c(Cl)cc(C(F)(F)F)cc21 (centres unmarked) [Compound C17] | 100%
26 | C=CC1(CCl)Nc2c([S+](C)[O-])c(C(C)=O)nn2-c2c(Cl)cc(C(F)(F)F)cc21 (centres unmarked) [Compound C19] | 100%
27 | C=CC1(CC#N)Nc2c([S+]([O-])CC)c(C#N)nn2-c2c(Cl)cc(C(F)(F)F)cc21 (centres unmarked) [Compound C21] | 100%
28 | C=CC1(CC#N)Nc2c([S+](C)[O-])c(C#N)nn2-c2c(Cl)cc(C(F)(F)F)cc21 (centres unmarked) [Compound C22] | 89%
29 | C=CC1(CC#N)Nc2c([S+](C)[O-])c(C(C)=O)nn2-c2c(Cl)cc(C(F)(F)F)cc21 (centres unmarked) [Compound C23] | 95%

Same assay, conditions: Aphis craccivora; 500 ppm; wingless adults; impregnation method; 24 hours; read-out: Aphis craccivora Mortality (%) 500 ppm

Row | Structure (SMILES) | mortality at 500 ppm
30 | COC(=O)Nc1cc2n(n1)-c1cnccc1C(F)(CC(F)(F)F)N2 (centres unmarked) [Compound A40] | 100%

Test system: Solenopsis invicta
Assay: whole plant or invertebrate
Format: in vivo
Settings: Solenopsis invicta, 24 h, 100 ppm; 24 h; water test tube poison-feeding; read-out: Solenopsis invicta Mortality (%) 100 ppm 24 h
Experimental: (4) Insecticidal Activity on Solenopsis invicta.
As a hymenoptera pests and a social insect, Solenopsis invicta is one of the most destructive invasive organisms. Solenopsis invicta were used as test objects and tested by using a water test tube poison-feeding method.
Operation process: Samples were weighed accurately, and respectively added with 200 μL of dimethyl sulfoxide to prepare 10 g/L mother liquor which was diluted into a concentration of 100 ppm with a mixed aqueous solution containing 0.05% of Tween-80 and 5% of honey during the test. […] The raising test tube was placed in a raising box horizontally, and a small amount of ham sausages were added to the raising test tube as food to raise the Solenopsis invicta at a constant temperature of 25° C. After being treated for 24 hours and 72 hours, a number of live Solenopsis invicta and a number of dead Solenopsis invicta were counted, and a mortality (%) was calculated according to a formula that mortality (%)=(number of live Solenopsis invicta in the control group−number of treated live Solenopsis invicta)/number of live Solenopsis invicta in the control group*100%.

Row | Structure (SMILES) | mortality at 100 ppm
31 | COC(=O)Nc1cc2n(n1)-c1cnccc1C(F)(CC(F)(F)F)N2 (centres unmarked) [Compound A40] | 20%

Same assay, conditions: Solenopsis invicta, 24 h, read-out: Solenopsis invicta Mortality (%) 100 ppm 24 h, 100 ppm; 24 h; water test tube poison-feeding

Row | Structure (SMILES) | mortality at 100 ppm
32 | C=CC1Nc2c(Br)c(C#N)nn2-c2c(Cl)cc(C(F)(F)F)cc21 (centres unmarked) [Compound C8] | 36%
33 | C=CC1(C(F)(F)F)Nc2c(-c3ccccc3C(F)(F)F)c(C#N)nn2-c2c(Cl)cc(C(F)(F)F)cc21 (centres unmarked) [Compound C11] | 46%
34 | C=CC1(C(F)(F)F)Nc2c(-c3cc(C)oc3C)c(C#N)nn2-c2c(Cl)cc(C(F)(F)F)cc21 (centres unmarked) [Compound C12] | 18%
35 | C=CC1Nc2c([S+]([O-])C(F)(F)F)c(C#N)nn2-c2c(Cl)cc(C(F)(F)F)cc21 (centres unmarked) [Compound C16] | 23%
36 | C=CC1(CCl)Nc2c([S+]([O-])CC)c(C#N)nn2-c2c(Cl)cc(C(F)(F)F)cc21 (centres unmarked) [Compound C17] | 15%
37 | C=CC1(CCl)Nc2c([S+](C)[O-])c(C(C)=O)nn2-c2c(Cl)cc(C(F)(F)F)cc21 (centres unmarked) [Compound C19] | 18%
38 | C=CC1(CC#N)Nc2c([S+]([O-])CC)c(C#N)nn2-c2c(Cl)cc(C(F)(F)F)cc21 (centres unmarked) [Compound C21] | 19%
39 | C=CC1(CC#N)Nc2c([S+](C)[O-])c(C#N)nn2-c2c(Cl)cc(C(F)(F)F)cc21 (centres unmarked) [Compound C22] | 20%
40 | C=CC1(CC#N)Nc2c([S+](C)[O-])c(C(C)=O)nn2-c2c(Cl)cc(C(F)(F)F)cc21 (centres unmarked) [Compound C23] | 18%

Same assay, conditions: Solenopsis invicta, 72 h, 100 ppm; 72 h; water test tube poison-feeding; read-out: Solenopsis invicta Mortality (%) 100 ppm 72 h

Row | Structure (SMILES) | mortality at 100 ppm
41 | COC(=O)Nc1cc2n(n1)-c1cnccc1C(F)(CC(F)(F)F)N2 (centres unmarked) [Compound A40] | 97%

Same assay, conditions: Solenopsis invicta, 72 h, read-out: Solenopsis invicta Mortality (%) 100 ppm 72 h, 100 ppm; 72 h; water test tube poison-feeding

Row | Structure (SMILES) | mortality at 100 ppm
42 | C=CC1Nc2c(Br)c(C#N)nn2-c2c(Cl)cc(C(F)(F)F)cc21 (centres unmarked) [Compound C8] | 92%
43 | C=CC1(C(F)(F)F)Nc2c(-c3ccccc3C(F)(F)F)c(C#N)nn2-c2c(Cl)cc(C(F)(F)F)cc21 (centres unmarked) [Compound C11] | 100%
44 | C=CC1(C(F)(F)F)Nc2c(-c3cc(C)oc3C)c(C#N)nn2-c2c(Cl)cc(C(F)(F)F)cc21 (centres unmarked) [Compound C12] | 95%
45 | C=CC1Nc2c([S+]([O-])C(F)(F)F)c(C#N)nn2-c2c(Cl)cc(C(F)(F)F)cc21 (centres unmarked) [Compound C16] | 89%
46 | C=CC1(CCl)Nc2c([S+]([O-])CC)c(C#N)nn2-c2c(Cl)cc(C(F)(F)F)cc21 (centres unmarked) [Compound C17] | 68%
47 | C=CC1(CCl)Nc2c([S+](C)[O-])c(C(C)=O)nn2-c2c(Cl)cc(C(F)(F)F)cc21 (centres unmarked) [Compound C19] | 70%
48 | C=CC1(CC#N)Nc2c([S+]([O-])CC)c(C#N)nn2-c2c(Cl)cc(C(F)(F)F)cc21 (centres unmarked) [Compound C21] | 99%
49 | C=CC1(CC#N)Nc2c([S+](C)[O-])c(C#N)nn2-c2c(Cl)cc(C(F)(F)F)cc21 (centres unmarked) [Compound C22] | 70%
50 | C=CC1(CC#N)Nc2c([S+](C)[O-])c(C(C)=O)nn2-c2c(Cl)cc(C(F)(F)F)cc21 (centres unmarked) [Compound C23] | 80%
